Entries after “also recorded” stand apart in the source; their conditions may differ. Where two headings read alike, the source gives them in different places.
Columns and labels:
[1] = tested on: estrogenic activity; assay: assay for estrogenic activity; type: cell-based; conditions: false-positive counter assay
[2] = biological target: T1, PPARγ receptor (Homo sapiens, UniProt P37231); assay: assay for PPARγ agonist activity; type: cell-based; conditions: false-positive counter assay
T1 sequence (P37231 1-505): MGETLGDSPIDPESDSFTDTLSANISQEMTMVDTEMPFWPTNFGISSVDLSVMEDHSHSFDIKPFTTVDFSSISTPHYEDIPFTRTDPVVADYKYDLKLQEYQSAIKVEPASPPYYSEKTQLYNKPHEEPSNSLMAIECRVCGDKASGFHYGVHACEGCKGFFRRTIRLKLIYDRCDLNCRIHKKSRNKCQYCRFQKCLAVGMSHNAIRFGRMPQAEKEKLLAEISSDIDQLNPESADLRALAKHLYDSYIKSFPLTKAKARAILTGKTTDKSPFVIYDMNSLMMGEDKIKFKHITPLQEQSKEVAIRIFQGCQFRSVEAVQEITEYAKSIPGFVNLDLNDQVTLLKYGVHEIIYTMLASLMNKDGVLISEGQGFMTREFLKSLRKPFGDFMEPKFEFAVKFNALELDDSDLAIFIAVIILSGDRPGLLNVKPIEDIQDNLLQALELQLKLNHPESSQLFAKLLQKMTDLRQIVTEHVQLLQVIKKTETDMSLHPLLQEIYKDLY

[3] = tested on: INS mRNA; assay: insulin mRNA qPCR in T6PNE cells; type: cell-based, human
Procedure: (§1) Quantitative PCR (Q-PCR) from in vitro cell culture experiments used total RNA purified using RNeasy Kits (Qiagen). For liver tissue samples, total RNA was isolated using Trizol (Invitrogen) and prepared for RNAseq (mouse liver DMSO and NCT, N=3). cDNA was amplified using 3 μg of total RNA using qScript cDNA SuperMix (Quanta BioSciences, Beverly, Mass., USA). QPCR analysis was performed using SYBR® Select Master Mix (Applied Biosystems) and ABI 7900HT (Applied Biosystems, Thermo Fisher Scientific). The Ct values of mRNA expression were then normalized to the 18 s rRNA values and are expressed as fold change over samples from mice fed normal chow for in vivo experiments or DMSO controls for cell culture experiments.

[4] = tested on: HNF4α mRNA; assay: HNF4α mRNA qPCR in T6PNE cells; type: cell-based, human
Procedure: as §1

[5] = murine PK; conditions: mouse, in vivo
Procedure: Murine PK was conducted by WuXi AppTec (Shanghai, China). C57BL/6 male mice of age 7-9 weeks were obtained from SLAC Laboratory Animal Co (Shanghai, China). Mice were fasted for 12 h prior to compound administration. Oral gavage was used for PO dosing. For IV dosing, compound was administered by tail vein injection. For compound concentration determination, 25 μL of blood was collected from the submandibular or saphenous vein and processed for plasma. Plasma concentration of compound was determined by LC-MS/MS.

[6] = animal cells and mice; cited from earlier work
[7] = biological target: T2, HNF4α (Homo sapiens, UniProt P41235); assay: T6PNE insulin promoter assay (human insulin promoter-GFP transgene); type: cell-based; design: endogenous in cells; host or cells: T6PNE cells; conditions: T6PNE cells; for insulin promoter activity / HNF4α activation: GFP-positive cells relative to DMSO; for dose responsiveness in the INS promoter assay: multiple doses
T2 sequence (P41235 1-474): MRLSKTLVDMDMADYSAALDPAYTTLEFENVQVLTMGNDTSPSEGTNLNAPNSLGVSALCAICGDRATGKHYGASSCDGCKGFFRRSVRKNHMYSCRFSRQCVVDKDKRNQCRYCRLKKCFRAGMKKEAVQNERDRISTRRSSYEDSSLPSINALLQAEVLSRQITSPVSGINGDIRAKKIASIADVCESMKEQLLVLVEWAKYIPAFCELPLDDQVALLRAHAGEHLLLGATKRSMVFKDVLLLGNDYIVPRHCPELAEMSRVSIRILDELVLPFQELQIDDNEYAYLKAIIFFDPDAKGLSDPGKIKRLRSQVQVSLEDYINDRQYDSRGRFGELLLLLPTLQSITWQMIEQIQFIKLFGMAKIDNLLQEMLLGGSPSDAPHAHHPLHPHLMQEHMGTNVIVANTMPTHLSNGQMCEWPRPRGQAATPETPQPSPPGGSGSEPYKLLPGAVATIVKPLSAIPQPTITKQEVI
Procedure: The T6PNE insulin promoter assay has been described previously and was performed here with slight modifications as follows: T6PNE cells were seeded at 200 cells per well in 384-well tissue culture plates (Greiner Bio-One) in the presence of 0.5 μM tamoxifen. Compounds described herein in DMSO were dispensed with an Echo 555 Acoustic Liquid Handler (Beckman Coulter). Three days after compound addition, cells were fixed in 4% paraformaldehyde (USBio) for 15 min and stained with DAPI (0.167 μg/ml, Invitrogen). Blue (DAPI) and green (GFP) channels were imaged using a Celigo imaging cytometer (Nexcelom Bioscience). The number of GFPpositive cells was normalized to the DAPI-positive cell number and fold change calculated relative to the DMSO control.
T6PNE cells were maintained in RPMI (5.5mM glucose, Corning) supplemented with 10% fetal bovine serum (FBS, Sigma-Aldrich) and 1% penicillin-streptomycin (pen-strep, Gibco). Cells were maintained in 5% CO2 at 37° C. For the insulin promoter assay, 0.5 μM tamoxifen (Sigma-Aldrich) was added to T6PNE cell culture media. HepG2 or HeLa cells were cultured in DMEM (high glucose, Corning) supplemented with 10% FBS and 1% pen-strep and maintained at 5% CO2, 37° C.

[8] = biological target: T2, HNF4α; assay: DARTS assay (HNF4α protease sensitivity) in HepG2 cells; type: binding; design: Total cell protein was extracted; endogenous in cells; host or cells: HepG2 cells; conditions: 40 or 80 μM for 16 h, subtilisin
Procedure: DARTS assays were conducted as described in the art. HepG2 cells were treated with DMSO, BI6015, NCT, NFT at a concentration of 40 or 80 μM for 16 hr. Total cell protein was extracted and measured by BCA protein assay (Thermo Scientific). Each sample was split into two aliquots for proteolysis without (−) or with (+) Subtilisin (Sigma-Aldrich). Forty […] of cell lysate was incubated with or without protease (40 ng/ml subtilisin) for 35 min at room temperature.
Whole-cell extracts were prepared by incubation in RIPA buffer (Invitrogen) containing protease inhibitors (Calbiochem, San Diego, Calif.). Protein ([…]) was separated on 12% or 16% Tri-Glycine gels (Invitrogen) and transferred to Immobilon P membrane (0.2 μm pore, Millipore). After 1 h in phosphate-buffered saline-Tween (PBST) with 3% milk, membrane was incubated with antibodies to HNF4α (mouse, Novus, 1:1000), LC3B (rabbit, Novus, 1:500), p62 (SQSTM1, mouse, Santa Cruz, 1:1000) or β-actin (mouse, Santa Cruz, 1:2000), followed by secondary antibody conjugated to horseradish peroxidase (1:5000, Jackson Immune).

Row | Compound | estrogenic activity [1] | PPARγ receptor agonist activity [2] | INS mRNA [3] | HNF4α mRNA [4] | HNF4α mRNA ([4]; listed as N-trans-caffeoyltyramine) | oral bioavailability [5] | anti-inflammatory properties [6] | insulin promoter activity / HNF4α activation [7] | dose responsiveness in the INS promoter assay [7] | HNF4α proteolytic sensitivity / conformational change [8]
1 | O=C(/C=C/c1ccc(O)c(O)c1)NCCc1ccc(O)cc1 [NCT, N-trans-caffeoyltyramine] | no estrogenic | no estrogenic or PPARγ receptor agonist activity | increased | increased; also recorded: induced HNF4α expression | induces the expression of HNF4a mRNA | poor oral bioavailability | anti-inflammatory properties | more potent activators; also recorded: strongest inducer of insulin promoter activity; also recorded: much more potent | exhibited dose responsiveness | induced a change in HNF4α proteolytic sensitivity
2 | COc1cc(/C=C/C(=O)NCCc2ccc(O)cc2)ccc1O [NFT, N-trans feruloyltyramine] | no estrogenic | no estrogenic or PPARγ receptor agonist activity | increased | increased; also recorded: induced HNF4α expression | – | poor oral bioavailability | anti-inflammatory properties | more potent activators; also recorded: approximately as active as alverine; also recorded: much more potent | exhibited dose responsiveness | induced a change in HNF4α proteolytic sensitivity
